What all share (type): cell-based
The test system of data set [1] is SARS-CoV-2 virus, strain S-007. As to the kind of experiment: Infection of Vero cells with SARS-CoV-2; viral RNA (E-gene) in supernatant by 1-step RT-qPCR. Conditions: bazedoxifene 10 μM in DMSO, 2 days of culture. The protocol:
0.15×10^6/ml Vero cells were infected with SARS-CoV-2 virus, an isolate from the environment, strain designated as S-007, provided by the Těchonin Biological Protection Department. Vero cells were then incubated in Dulbecco's Modified Eagle's Medium (DMEM) with 2% fetal bovine serum (FBS), DMSO 1 μl/ml, or in culture medium with bazedoxifene 10 […] in DMSO dosed from a starting stock solution of 10 mM bazedoxifene in DMSO, corresponding to a bazedoxifene concentration of […]. After 2 days of culture, the virus was quantified in the cell supernatant as follows.
Viral RNA was detected by 1-step RT-qPCR. Total RNA was isolated from 200 μl of supernatant of SARS-CoV-2 infected cells using magnetic beads. SARS-CoV-2 RNA was determined by amplifying the SARS-CoV-2 E-gene (Generi Biotech) using the SensiFast Probe One-Step Kit (BioLine) and Light Cycler 480 II (Roche). Viral RNA was quantified absolutely using a calibration curve.
A general note: Real-time PCR tracks product formation cycle by cycle.

Data set [2] relates to Vero-E6 cells (ATCC CRL-1586). As to the kind of experiment: Cytotoxicity in Vero-E6 cell culture (Cell Counting Kit-8). The note with it: 48 h incubation, range 0-15.2 μg/μl. The protocol: The toxicity of the test substance was measured in a culture of Vero-E6 cells (ATCC CRL-1586). Cells were cultured in a 96-well microtiter plate (2×10^4 cells per well) for 24 h at 37° C. and 5% CO2. Then, the test substance was added to the cells in a concentration range of 0-15.2 μg/μ1, and the thus treated cells were subsequently incubated for another 48 h. The viability of the cells was then determined using the Cell Counting Kit-8 kit (Dojindo Molecular Technologies, Munich, Germany), exactly according to the manufacturer's instructions. Results are depicted in FIG. 1. The maximum non-toxic concentration of test substance in Vero-E6 cell culture was 3.8 μg/μl.
(Tetrazolium dyes change colour on reduction, which living cells bring about.)

In data set [3] the test system is SARS-CoV-2 virus (strain SARS-CoV-2/human/Czech Republic/951/2020). Kind of data set: Antiviral testing in Vero-E6 cells, virus titer by plaque titration. Conditions: Vero-E6, 3.8 μg/μl, MOI 0.1, 48 h. The protocol:
Confluent culture of Vero-E6 cells (ATCC CRL-1586) was used to test for antiviral activity. Cells were cultured in a 96-well microtiter plate (2×10^4 cells per well) for 24 h at 37° C. and 5% CO2. The culture medium was then aspirated and replaced with fresh medium containing the test substance in a concentration range of 0-3.8 μg/μl. At the same time, the cells were infected with the SARS-CoV-2 virus (strain SARS-CoV-2/human/Czech Republic/951/2020) at a multiplicity of infection of 0.1. The thus treated and infected cells were incubated for 48 h at 37° C. and 5% CO2. The medium was then aspirated from the culture wells and the virus titer was determined by plaque titration (Stefanik et al., Microorganisms 2021, 9 (3), 471; https://doi.org/10.3390/microorganisms9030471).
Results are depicted in FIG. 2.

In the case of bazedoxifene, in data set [1] (E-gene copies), the “% of DMSO” value amounted to 0.17% and the “Fold decrease compared to DMSO” value is reported as 578.09. The “E-gene No. of copies of the gene/ml” value in data set [1] (cell supernatant) was 5.39 × 10^7 copies of the gene/ml. In addition, the maximum non-toxic concentration in data set [2] was 3.8 µg/µL. In data set [3] (versus control group), the “decrease of titer in the treated group” value was “approximately 1 log10 pfu/ml”. Moreover, the mean virus titer in data set [3] (control group 7.4 log10 pfu/ml) stood at 6.3 log10 pfu/ml.

The values above are taken from patent US11246874B1, “Treatment of COVID-19” (Oxygen Biotech LLC, priority 2021, dated 2022).
